This passage reports IC50 results from US6908930B2, “4-substituted 7-AZA-indolin-2-ones and their use as protein kinase inhibitors” (Sugen, Inc., priority 1999, dated 2005).

Structures are written as SMILES. Like-named read-outs stand apart in the source and are kept apart here.

The target in this assay is T1, EGFR (Homo sapiens, UniProt P00533).
T1 construct: A431 […] cell lysate is stored at −80° C; host or cells: A431 cell lysate
Nature of the assay: Assay for modulation of EGFR activity (ELISA). The class given is biochemical. On the procedure: Using the following reagents, supplies, and method, the ability of compounds of the invention to modulate the in vitro activity of EGFR can be readily determined in an ELISA.
A431 […] cell lysate is stored at −80° C.
ATP/MnCl2 phosphorylation mix is prepared by adding 300 μL of 1.0 mM ATP and […] of 1M MnCl2 to 9.2 mL of dH2O and mixing. Ten mL of phosphorylation mix is enough for about 6 assay plates. Note that the mixture should be made fresh and kept on ice immediately before use, and that although the preferred ATP is fresh from powder stock, any remaining stock solution of ATP may be frozen at −20° C. in small aliquots to be used at a later time.
Coat Corning 96 well ELISA plates with 0.5 μg per well with SUMO1 in a volume of 100 μL PBS overnight, at 4° C. Remove unbound SUMO1 from wells by inverting plate to remove liquid. Wash 1× with distilled H2O by filling wells. Pat the plate on a paper towel to remove excess liquid.
Add 150 μL of Blocking Buffer to each well. Incubate for 30 minutes at room temperature, with shaking. Wash plate 3× with deionized water, then once with TBST. Pat plate on a paper towel to remove excess liquid and bubbles.
Dilute lysate in PBS (7 μg lysate/[…]) and add 100 μL of diluted lysate to each well. Shake at room temperature for 60 minutes. Wash 1× with distilled H2O by filling wells. Pat the plate on a paper towel to remove excess liquid.
Add 120 μL TBST to ELISA plate containing captured EGFR.
Dilute drugs/extracts 1:10 (unless specified otherwise) in TBST in 96-well polypropylene plates. (i.e., 10 μL compound+90 μL TBST). Add 13.5 μL diluted drugs/extracts to ELISA plate. […] Incubate for 30 minutes while shaking at room temperature.
Approximately 150 μL final volume in well with 3 uM ATP/5 mM MnCl2 final concentration in well. Incubate 5 minutes while shaking. Note that this is a timed event. It is critical that ATP/MnCl2 phosphorylates the receptor for only 5 minutes. It is best to add the ATP/MnCl2 with an automated 96 place pipettor workstation, then 5 minutes later stop the reaction with EDTA using the same workstation. Alternatively, addition can be performed using a 12 channel pipettor 1 row at a time, leaving 20 seconds between each row so that the reaction may be stopped with EDTA exactly 5 minutes later (this depends on the number of plates being phosphorylated in one batch). Shake between each addition.
[…] This is done using either the same work station as above, or the same timing method employed with the 12 channel pipettor. After the EDTA has been added, shake for 1 minute. Wash 4× with deionized water, twice with TBST.
Add 100 μL per well of anti-phosphotyrosine (1:3000 dilution in TBST). Incubate 30-45 minutes at room temperature, with shaking. Wash 1× with distilled H2O by filling wells. Pat the plate on a paper towel to remove excess liquid.
Incubate 30 minutes at room temperature, with shaking. Wash 1× with distilled H2O by filling wells. Pat the plate on a paper towel to remove excess liquid.
Add 100 μL of ABTS/H2O2 solution to each well. Incubate 5 to 10 minutes while shaking. Remove any bubbles. If necessary stop reaction with the addition of 100 μL of 0.2M HCl per well.
Read assay on Dynatech MR7000 ELISA reader.
Background: ELISA stands for enzyme-linked immunosorbent assay.

T1 sequence (P00533 25-1210): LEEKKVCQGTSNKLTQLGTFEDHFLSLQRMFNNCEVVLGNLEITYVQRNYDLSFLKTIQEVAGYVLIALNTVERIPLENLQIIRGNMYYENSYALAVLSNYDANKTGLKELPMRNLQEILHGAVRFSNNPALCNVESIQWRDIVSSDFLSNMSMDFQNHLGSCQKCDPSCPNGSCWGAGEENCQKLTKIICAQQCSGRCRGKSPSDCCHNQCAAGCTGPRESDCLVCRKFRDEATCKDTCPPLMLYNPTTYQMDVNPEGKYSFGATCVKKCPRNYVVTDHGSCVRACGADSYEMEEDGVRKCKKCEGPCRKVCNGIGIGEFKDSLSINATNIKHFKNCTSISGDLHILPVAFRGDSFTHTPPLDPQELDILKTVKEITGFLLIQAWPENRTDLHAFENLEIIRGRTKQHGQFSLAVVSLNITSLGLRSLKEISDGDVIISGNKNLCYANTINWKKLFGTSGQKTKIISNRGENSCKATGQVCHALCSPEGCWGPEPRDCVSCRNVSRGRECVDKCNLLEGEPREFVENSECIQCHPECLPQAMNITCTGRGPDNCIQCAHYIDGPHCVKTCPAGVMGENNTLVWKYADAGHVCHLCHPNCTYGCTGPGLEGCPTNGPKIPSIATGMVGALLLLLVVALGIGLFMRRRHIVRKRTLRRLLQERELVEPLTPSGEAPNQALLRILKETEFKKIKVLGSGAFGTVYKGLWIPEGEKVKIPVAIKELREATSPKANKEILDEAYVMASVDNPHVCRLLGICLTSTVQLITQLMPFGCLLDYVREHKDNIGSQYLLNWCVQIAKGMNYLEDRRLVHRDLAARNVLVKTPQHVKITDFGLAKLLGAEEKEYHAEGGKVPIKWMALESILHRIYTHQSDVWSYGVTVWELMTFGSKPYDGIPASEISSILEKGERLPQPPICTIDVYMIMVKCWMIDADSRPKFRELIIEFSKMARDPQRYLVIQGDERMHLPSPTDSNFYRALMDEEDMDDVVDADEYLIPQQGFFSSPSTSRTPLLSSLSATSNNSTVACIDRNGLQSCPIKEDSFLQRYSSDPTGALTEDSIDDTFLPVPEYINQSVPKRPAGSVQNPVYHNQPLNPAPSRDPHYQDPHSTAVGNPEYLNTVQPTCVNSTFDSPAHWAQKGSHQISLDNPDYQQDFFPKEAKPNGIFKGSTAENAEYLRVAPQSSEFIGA

A word on the IC50: it is the concentration needed to halve the response being measured. The compound `Cc1cc(C(=O)N2CCOCC2)[nH]c1/C=C1\C(=O)Nc2ncnc(Nc3ccc(F)c(Cl)c3)c21` [Formula 26] displayed an IC50 of 160 nM. Turning to `Cc1c(C(=O)N2CCN(C)CC2)c[nH]c1/C=C1\C(=O)Nc2ncnc(Nc3ccc(F)c(Cl)c3)c21` [Formula 29], half-maximal inhibition (IC50) required 450 nM. On to `Cc1cc(C)c(/C=C2\C(=O)N(C)c3ncnc(Nc4ccc(F)c(Cl)c4)c32)[nH]1` [Formula 38], for which the IC50 (read-out: bio EGFR IC50) came to 5600 nM. As to `Cc1cc(C(=O)N2CCN(C)CC2)[nH]c1/C=C1\C(=O)Nc2ncnc(Nc3ccc(F)c(Cl)c3)c21` [Formula 39], half-maximal inhibition (IC50) was put at 4 nM. With `Cc1[nH]c(/C=C2\C(=O)N(C)c3ncnc(Nc4ccc(F)c(Cl)c4)c32)c(C)c1CCC(=O)O` [Formula 40], the IC50 (read-out: bio EGFR IC50) is 4200 nM. On the same count and under the same terms, the result for `Cc1cc(CCC(=O)O)[nH]c1/C=C1\C(=O)N(C)c2ncnc(Nc3ccc(F)c(Cl)c3)c21` [Formula 42] reads 10400 nM.

For `Cc1[nH]c(/C=C2\C(=O)N(C)c3ncnc(Nc4ccc(F)c(Cl)c4)c32)c(C)c1CCCN1CCOCC1` [Formula 44], the IC50 (read-out: bio EGFR IC50) is > 20000 nM.

On to `Cc1cc(C(=O)N2CCOCC2)[nH]c1/C=C1\C(=O)Nc2ncnc(NC(C)c3ccccc3)c21` (centres unmarked) [Formula 46], for which, under “read-out: bio EGFR IC50”, the IC50 is 1.2 nM. Still for that read-out and setting: the result for `Cc1cc(C(=O)O)[nH]c1/C=C1\C(=O)Nc2ncnc(Nc3ccc(F)c(Cl)c3)c21` [Formula 47] reads 36 nM.

For the compound `Cc1cc(C(=O)N2CC(C)N(C)C(C)C2)[nH]c1/C=C1\C(=O)Nc2ncnc(Nc3ccc(F)c(Cl)c3)c21` (centres unmarked) [Formula 53], the IC50 (read-out: bio EGFR IC50) was < 156 nM. The same measure, in the same setting: as for `CCN1CCN(C(=O)c2cc(C)c(/C=C3\C(=O)Nc4ncnc(Nc5ccc(F)c(Cl)c5)c43)[nH]2)CC1` [Formula 54], the figure is < 156 nM.
